{"source": "patent US20230274811A1", "about": "“METHODS OF MAKING PROSTATE CANCER TREATMENT DECISIONS” (Progenics Pharmaceuticals, Inc., priority 2020, published 2023)", "test_system": "biochemically recurrent prostate cancer", "experiment": "CONDOR: 18F-DCFPyL PET/CT correct localization rate, detection rate and PPV vs composite standard of truth", "type": "in vivo, men", "text": "1. Correct Localization Rate (CLR), defined as percentage of subjects with a one-to-one correspondence between localization of at least one lesion identified on ^18F-DCFPyL PET/CT imaging and the composite truth standard, defined as either evaluable histopathology, informative correlative imaging, or PSA response after radiation therapy.\nMen ≥18 years of age with a rising PSA after definitive PCa therapy and negative or equivocal imaging were enrolled. […] The primary endpoint of this study was the correct localization rate (CLR). CLR is defined as the percentage of patients with a one-to-one correspondence between localization of at least one lesion identified by ^18F-DCFPyL PET/CT and a composite standard of truth (SOT). SOT was determined by two central readers and included either histopathology or another standard imaging modality (i.e., fluciclovine-PET/CT, CT/MRI, bone scan) or alternatively, by a post-treatment PSA change for irradiated lesions.\nMethods: Men ≥18 years—with rising PSA after definitive therapy and negative or equivocal standard of care imaging (e.g., CT/MRI, bone scintigraphy) were enrolled. A single 9 mCi (333 MBq)±20% dose of PyL was injected, followed by PET/CT 1-2 hours later. Primary endpoint was correct localization rate (CLR), defined as percentage of pts with a 1:1 correspondence between at least one lesion identified by PyL-PET/CT and the composite standard of truth: pathology, correlative imaging, or PSA response. […] The secondary endpoint, impact of PyL-PET/CT on clinical management of pts was based on the treating physician's documented clinical plans before and after PyL-PET/CT.\nMen with a PSA ≥0.2 ng/mL after surgery or ≥2 ng/mL above the nadir after radiation therapy were eligible for enrollment. The primary endpoint was the correct localization rate (CLR) defined as positive predictive value with an additional requirement of anatomical lesion colocalization between ^18F-DCFPyL-PET/CT and a composite standard of truth (SOT). The SOT consisted of, in descending priority: 1) histopathology, 2) correlative imaging findings determined by two central readers, or 3) post-radiation PSA response. […] The impact of ^18F-DCFPyL-PET/CT as defined by change in management intent, and safety were evaluated as secondary endpoints.\nPatients voided prior to imaging, and PET and non-contrast CT images were acquired from the mid-thigh through the skull vertex. All ^18F-DCFPyL-PET/CT scans were submitted to the central imaging core laboratory for assessment. Patients with positive ^18F-DCFPyL-PET/CT scans based on local interpretation were scheduled for post-^18F-DCFPyL-PET/CT follow-up to verify suspected lesion(s) based on a composite standard of truth (SOT). (FIG. 16)\nBecause of the expected absence of an amenable lesion for histologic verification in all patients, a composite SOT was employed based on assessment performed or initiated within 60 days following ^18F-DCFPyL-PET/CT. These reference standards were defined (in descending priority) as (1) evaluable histopathology results from prostatectomy, salvage pelvic lymph node dissection or biopsy; (2) imaging findings using ^18F-fluciclovine or ^11C-choline PET, or focused MRI or CT; or (3) if neither of the above was available or informative, confirmed PSA response up to 9 months post-radiation initiation (with no concomitant ADT) of all PET-positive foci. PSA response was defined as PSA decline by ≥50% from baseline that was confirmed on repeat measurement within 4 weeks, based on central laboratory results.\nA central imaging core laboratory was employed to independently manage image handling, reader training, reader sessions and data collection. […] The readers had no access to any clinical information, including PSA values or other imaging available for a patient. […]", "key": {"[1]": {"conditions": "SOT Correlative imaging n=100, Reader 1"}, "[2]": {"conditions": "SOT Correlative imaging n=100, Reader 2"}}}
{"smiles": "O=C(O)CC[C@H](NC(=O)N[C@@H](CCCCNC(=O)c1ccc([18F])nc1)C(=O)O)C(=O)O", "note": "[18F-DCFPyL, 2-(3-{1-carboxy-5-[(6-[^18F]fluoro-pyridine-3-carbonyl)-amino]-pentyl}ureido)-pentanedioic acid]", "values": [{"measurement": "pts with PSMA-avid lesion(s), local radiology assessment", "setting": "142/208", "result": 69.3, "unit": "%"}, {"measurement": "PPV by anatomic region", "setting": "Extra-pelvic, Reader 1 (CONDOR Reader 4 in Table 17)", "result": "33 (67.3) %"}, {"measurement": "PPV by anatomic region", "setting": "Extra-pelvic, Reader 1 (CONDOR Reader 4 in Table 17), listed as PyLARIFY", "result": 67, "unit": "%"}, {"measurement": "PPV by anatomic region", "setting": "Extra-pelvic, Reader 2 (CONDOR Reader 5 in Table 17)", "result": "31 (67.4) %"}, {"measurement": "PPV by anatomic region", "setting": "Extra-pelvic, Reader 2 (CONDOR Reader 5 in Table 17), listed as PyLARIFY", "result": 67, "unit": "%"}, {"measurement": "PPV by anatomic region", "setting": "Extra-pelvic, Reader 3 (CONDOR Reader 6 in Table 17)", "result": "30 (69.8) %"}, {"measurement": "PPV by anatomic region", "setting": "Extra-pelvic, Reader 3 (CONDOR Reader 6 in Table 17), listed as PyLARIFY", "result": 70, "unit": "%"}, {"measurement": "CLR by baseline PSA", "setting": "PSA 0.5-<1.0 ng/mL, Reader 1", "result": "12 (75.0) %"}, {"measurement": "Detection rate by baseline PSA", "setting": "PSA 0.5-<1.0 ng/mL, Reader 1", "result": "21 (56.8) %"}, {"measurement": "CLR by baseline PSA", "setting": "PSA 0.5-<1.0 ng/mL, Reader 2", "result": "10 (76.9) %"}, {"measurement": "Detection rate by baseline PSA", "setting": "PSA 0.5-<1.0 ng/mL, Reader 2", "result": 45.9, "unit": "%"}, {"measurement": "CLR by baseline PSA", "setting": "PSA 0.5-<1.0 ng/mL, Reader 3", "result": "11 (73.3) %"}, {"measurement": "Detection rate by baseline PSA", "setting": "PSA 0.5-<1.0 ng/mL, Reader 3", "result": "19 (51.4) %"}, {"measurement": "CLR by baseline PSA", "setting": "PSA 1.0-<2.0 ng/mL, Reader 1", "result": "17 (85.0) %"}, {"measurement": "Detection rate by baseline PSA", "setting": "PSA 1.0-<2.0 ng/mL, Reader 1", "result": "24 (72.7) %"}, {"measurement": "CLR by baseline PSA", "setting": "PSA 1.0-<2.0 ng/mL, Reader 2", "result": "14 (77.8) %"}, {"measurement": "Detection rate by baseline PSA", "setting": "PSA 1.0-<2.0 ng/mL, Reader 2", "result": "22 (66.7) %"}, {"measurement": "CLR by baseline PSA", "setting": "PSA 1.0-<2.0 ng/mL, Reader 3", "result": "15 (83.3) %"}, {"measurement": "Detection rate by baseline PSA", "setting": "PSA 1.0-<2.0 ng/mL, Reader 3", "result": "19 (57.6) %"}, {"measurement": "CLR by baseline PSA", "setting": "PSA 2.0 < 5.0 ng/mL, Reader 1", "result": "21 (91.3) %"}, {"measurement": "Detection rate by baseline PSA", "setting": "PSA 2.0 < 5.0 ng/mL, Reader 1", "result": "28 (84.8) %"}, {"measurement": "CLR by baseline PSA", "setting": "PSA 2.0 < 5.0 ng/mL, Reader 2", "result": "24 (92.3) %"}, {"measurement": "Detection rate by baseline PSA", "setting": "PSA 2.0 < 5.0 ng/mL, Reader 2", "result": "29 (87.9) %"}, {"measurement": "CLR by baseline PSA", "setting": "PSA 2.0 < 5.0 ng/mL, Reader 3", "result": "20 (90.9) %"}, {"measurement": "Detection rate by baseline PSA", "setting": "PSA 2.0 < 5.0 ng/mL, Reader 3", "result": "27 (81.8) %"}, {"measurement": "CLR by baseline PSA", "setting": "PSA <0.5 ng/mL, Reader 1", "result": "11 (73.3) %"}, {"measurement": "Detection rate by baseline PSA", "setting": "PSA <0.5 ng/mL, Reader 1", "result": "29 (42.0) %"}, {"measurement": "CLR by baseline PSA", "setting": "PSA <0.5 ng/mL, Reader 2", "result": 76.9, "unit": "%"}, {"measurement": "Detection rate by baseline PSA", "setting": "PSA <0.5 ng/mL, Reader 2", "result": "23 (33.3) %"}, {"measurement": "CLR by baseline PSA", "setting": "PSA <0.5 ng/mL, Reader 3", "result": "11 (73.3) %"}, {"measurement": "Detection rate by baseline PSA", "setting": "PSA <0.5 ng/mL, Reader 3", "result": "25 (36.2) %"}, {"measurement": "CLR by baseline PSA", "setting": "PSA ≥5 ng/mL, Reader 1", "result": "27 (96.4) %"}, {"measurement": "Detection rate by baseline PSA", "setting": "PSA ≥5 ng/mL, Reader 1", "result": "29 (96.7) %"}, {"measurement": "CLR by baseline PSA", "setting": "PSA ≥5 ng/mL, Reader 2", "result": "28 (96.6) %"}, {"measurement": "Detection rate by baseline PSA", "setting": "PSA ≥5 ng/mL, Reader 2", "result": "29 (96.7) %"}, {"measurement": "CLR by baseline PSA", "setting": "PSA ≥5 ng/mL, Reader 3", "result": "26 (96.3) %"}, {"measurement": "Detection rate by baseline PSA", "setting": "PSA ≥5 ng/mL, Reader 3", "result": "27 (90.0) %"}, {"measurement": "PPV by anatomic region", "setting": "Pelvic, Reader 1 (CONDOR Reader 4 in Table 17)", "result": "41 (67.2) %"}, {"measurement": "PPV by anatomic region", "setting": "Pelvic, Reader 1 (CONDOR Reader 4 in Table 17), listed as PyLARIFY", "result": 67, "unit": "%"}, {"measurement": "PPV by anatomic region", "setting": "Pelvic, Reader 2 (CONDOR Reader 5 in Table 17)", "result": "40 (72.7) %"}, {"measurement": "PPV by anatomic region", "setting": "Pelvic, Reader 2 (CONDOR Reader 5 in Table 17), listed as PyLARIFY", "result": 73, "unit": "%"}, {"measurement": "PPV by anatomic region", "setting": "Pelvic, Reader 3 (CONDOR Reader 6 in Table 17)", "result": "39 (70.9) %"}, {"measurement": "PPV by anatomic region", "setting": "Pelvic, Reader 3 (CONDOR Reader 6 in Table 17), listed as PyLARIFY", "result": 71, "unit": "%"}, {"measurement": "PPV by anatomic region", "setting": "Prostatic (prostate bed), Reader 1 (CONDOR Reader 4 in Table 17), listed as PyLARIFY", "result": 80, "unit": "%"}, {"measurement": "PPV by anatomic region", "setting": "Prostatic (prostate bed), Reader 2 (CONDOR Reader 5 in Table 17)", "result": "30 (83.3) %"}, {"measurement": "PPV by anatomic region", "setting": "Prostatic (prostate bed), Reader 2 (CONDOR Reader 5 in Table 17), listed as PyLARIFY", "result": 83, "unit": "%"}, {"measurement": "PPV by anatomic region", "setting": "Prostatic (prostate bed), Reader 3 (CONDOR Reader 6 in Table 17)", "result": "27 (75.0) %"}, {"measurement": "PPV by anatomic region", "setting": "Prostatic (prostate bed), Reader 3 (CONDOR Reader 6 in Table 17), listed as PyLARIFY", "result": 75, "unit": "%"}, {"measurement": "CLR (TP/TP + FP)", "setting": "SOT CT n=6, Reader 1", "result": "(80.0%)"}, {"measurement": "Negative PyL Scan", "setting": "SOT CT n=6, Reader 1", "result": "(16.7%)"}, {"measurement": "Positive PyL Scan", "setting": "SOT CT n=6, Reader 1", "result": "(83.3%)"}, {"measurement": "CLR (TP/TP + FP)", "setting": "SOT CT n=6, Reader 2", "result": "(100.0%)"}, {"measurement": "Negative PyL Scan", "setting": "SOT CT n=6, Reader 2", "result": "(16.7%)"}, {"measurement": "Positive PyL Scan", "setting": "SOT CT n=6, Reader 2", "result": "(83.3%)"}, {"measurement": "CLR (TP/TP + FP)", "setting": "SOT CT n=6, Reader 3", "result": "(80.0%)"}, {"measurement": "Negative PyL Scan", "setting": "SOT CT n=6, Reader 3", "result": "(16.7%)"}, {"measurement": "Positive PyL Scan", "setting": "SOT CT n=6, Reader 3", "result": "(83.3%)"}, {"measurement": "CLR (TP/TP + FP)", "setting": "[1]", "result": "(88.0%)"}, {"measurement": "Negative PyL Scan", "setting": "[1]", "result": "(18.0%)"}, {"measurement": "PPV (TP/TP + FP)", "setting": "[1]", "result": "(89.0%)"}, {"measurement": "Positive PyL Scan", "setting": "[1]", "result": "(82.0%)"}, {"measurement": "CLR (TP/TP + FP)", "setting": "[2]", "result": "(88.6%)"}, {"measurement": "Negative PyL Scan", "setting": "[2]", "result": "(24.0%)"}, {"measurement": "PPV (TP/TP + FP)", "setting": "[2]", "result": "(89.5%)"}, {"measurement": "Positive PyL Scan", "setting": "[2]", "result": "(76.0%)"}]}
